# Where two headings read alike, the source gives them in different places. Positions of bridges follow the written chain, without caps; N, C: chain ends. Non-standard residues stand in square brackets, D forms with d. Residues, ends and D or L forms follow the SMILES beside them. 1Nal = N[C@@H](Cc1cccc2ccccc12)C(=O)O
# Experiments:
# hNav1.5 = hNav1.5 (Homo sapiens, UniProt Q14524); experiment: cell-based
# hNav1.3 = hNav1.3 (Homo sapiens, UniProt Q9NY46); experiment: cell-based; settings: IonWorks Quattro, read-out: IWQ Use Nav1.3
# [1] = IonWorks Quattro, Use, read-out: IWQ Use Nav1.5
# Sequence of hNav1.3 (Q9NY46 whole entry, looked up): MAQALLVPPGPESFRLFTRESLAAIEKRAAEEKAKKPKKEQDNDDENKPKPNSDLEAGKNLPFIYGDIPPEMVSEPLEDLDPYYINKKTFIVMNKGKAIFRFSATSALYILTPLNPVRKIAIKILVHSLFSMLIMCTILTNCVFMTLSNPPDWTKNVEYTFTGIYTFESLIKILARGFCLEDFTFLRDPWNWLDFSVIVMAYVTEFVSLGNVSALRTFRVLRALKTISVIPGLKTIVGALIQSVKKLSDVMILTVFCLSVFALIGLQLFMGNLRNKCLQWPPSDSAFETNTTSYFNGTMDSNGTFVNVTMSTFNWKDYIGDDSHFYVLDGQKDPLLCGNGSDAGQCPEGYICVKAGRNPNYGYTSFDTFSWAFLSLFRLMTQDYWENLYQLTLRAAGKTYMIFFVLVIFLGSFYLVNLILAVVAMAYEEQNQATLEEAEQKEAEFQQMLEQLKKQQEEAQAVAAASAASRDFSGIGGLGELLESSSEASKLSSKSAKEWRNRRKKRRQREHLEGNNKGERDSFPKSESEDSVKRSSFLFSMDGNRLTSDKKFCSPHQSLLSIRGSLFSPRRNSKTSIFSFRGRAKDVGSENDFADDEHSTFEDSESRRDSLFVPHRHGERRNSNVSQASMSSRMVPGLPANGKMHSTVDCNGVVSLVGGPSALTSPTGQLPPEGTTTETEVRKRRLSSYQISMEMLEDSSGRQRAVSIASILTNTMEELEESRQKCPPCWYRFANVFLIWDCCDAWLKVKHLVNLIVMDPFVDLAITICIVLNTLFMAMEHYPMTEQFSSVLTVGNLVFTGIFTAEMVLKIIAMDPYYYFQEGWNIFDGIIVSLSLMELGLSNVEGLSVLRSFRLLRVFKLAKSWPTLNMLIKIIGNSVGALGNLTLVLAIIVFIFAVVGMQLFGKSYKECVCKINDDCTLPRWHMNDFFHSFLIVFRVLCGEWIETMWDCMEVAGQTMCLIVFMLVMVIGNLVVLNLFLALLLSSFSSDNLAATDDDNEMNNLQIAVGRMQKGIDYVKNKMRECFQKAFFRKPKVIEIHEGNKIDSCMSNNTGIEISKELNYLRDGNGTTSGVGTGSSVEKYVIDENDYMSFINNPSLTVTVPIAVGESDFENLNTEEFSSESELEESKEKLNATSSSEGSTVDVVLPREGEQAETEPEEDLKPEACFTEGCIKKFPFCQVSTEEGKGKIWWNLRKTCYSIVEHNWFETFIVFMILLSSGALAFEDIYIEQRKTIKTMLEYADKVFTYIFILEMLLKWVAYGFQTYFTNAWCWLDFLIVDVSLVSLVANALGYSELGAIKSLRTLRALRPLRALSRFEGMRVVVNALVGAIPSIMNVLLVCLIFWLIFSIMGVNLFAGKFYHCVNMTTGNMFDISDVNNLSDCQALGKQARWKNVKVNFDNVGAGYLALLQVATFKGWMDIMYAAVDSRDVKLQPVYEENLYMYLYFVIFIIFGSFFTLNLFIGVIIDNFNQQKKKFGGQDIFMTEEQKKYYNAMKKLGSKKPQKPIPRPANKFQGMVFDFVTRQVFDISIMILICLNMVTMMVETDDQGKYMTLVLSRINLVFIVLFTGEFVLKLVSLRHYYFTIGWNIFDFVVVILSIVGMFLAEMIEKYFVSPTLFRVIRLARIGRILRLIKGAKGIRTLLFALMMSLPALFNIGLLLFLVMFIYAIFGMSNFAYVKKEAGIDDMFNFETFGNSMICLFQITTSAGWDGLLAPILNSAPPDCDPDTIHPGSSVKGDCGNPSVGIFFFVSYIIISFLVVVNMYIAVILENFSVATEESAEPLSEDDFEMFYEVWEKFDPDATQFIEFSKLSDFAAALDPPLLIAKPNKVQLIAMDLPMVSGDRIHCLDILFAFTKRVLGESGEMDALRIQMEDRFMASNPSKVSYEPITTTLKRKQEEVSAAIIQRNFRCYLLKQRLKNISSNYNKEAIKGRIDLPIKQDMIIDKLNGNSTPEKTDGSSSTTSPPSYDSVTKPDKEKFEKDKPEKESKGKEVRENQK
# Sequence of hNav1.5 (Q14524 whole entry, looked up): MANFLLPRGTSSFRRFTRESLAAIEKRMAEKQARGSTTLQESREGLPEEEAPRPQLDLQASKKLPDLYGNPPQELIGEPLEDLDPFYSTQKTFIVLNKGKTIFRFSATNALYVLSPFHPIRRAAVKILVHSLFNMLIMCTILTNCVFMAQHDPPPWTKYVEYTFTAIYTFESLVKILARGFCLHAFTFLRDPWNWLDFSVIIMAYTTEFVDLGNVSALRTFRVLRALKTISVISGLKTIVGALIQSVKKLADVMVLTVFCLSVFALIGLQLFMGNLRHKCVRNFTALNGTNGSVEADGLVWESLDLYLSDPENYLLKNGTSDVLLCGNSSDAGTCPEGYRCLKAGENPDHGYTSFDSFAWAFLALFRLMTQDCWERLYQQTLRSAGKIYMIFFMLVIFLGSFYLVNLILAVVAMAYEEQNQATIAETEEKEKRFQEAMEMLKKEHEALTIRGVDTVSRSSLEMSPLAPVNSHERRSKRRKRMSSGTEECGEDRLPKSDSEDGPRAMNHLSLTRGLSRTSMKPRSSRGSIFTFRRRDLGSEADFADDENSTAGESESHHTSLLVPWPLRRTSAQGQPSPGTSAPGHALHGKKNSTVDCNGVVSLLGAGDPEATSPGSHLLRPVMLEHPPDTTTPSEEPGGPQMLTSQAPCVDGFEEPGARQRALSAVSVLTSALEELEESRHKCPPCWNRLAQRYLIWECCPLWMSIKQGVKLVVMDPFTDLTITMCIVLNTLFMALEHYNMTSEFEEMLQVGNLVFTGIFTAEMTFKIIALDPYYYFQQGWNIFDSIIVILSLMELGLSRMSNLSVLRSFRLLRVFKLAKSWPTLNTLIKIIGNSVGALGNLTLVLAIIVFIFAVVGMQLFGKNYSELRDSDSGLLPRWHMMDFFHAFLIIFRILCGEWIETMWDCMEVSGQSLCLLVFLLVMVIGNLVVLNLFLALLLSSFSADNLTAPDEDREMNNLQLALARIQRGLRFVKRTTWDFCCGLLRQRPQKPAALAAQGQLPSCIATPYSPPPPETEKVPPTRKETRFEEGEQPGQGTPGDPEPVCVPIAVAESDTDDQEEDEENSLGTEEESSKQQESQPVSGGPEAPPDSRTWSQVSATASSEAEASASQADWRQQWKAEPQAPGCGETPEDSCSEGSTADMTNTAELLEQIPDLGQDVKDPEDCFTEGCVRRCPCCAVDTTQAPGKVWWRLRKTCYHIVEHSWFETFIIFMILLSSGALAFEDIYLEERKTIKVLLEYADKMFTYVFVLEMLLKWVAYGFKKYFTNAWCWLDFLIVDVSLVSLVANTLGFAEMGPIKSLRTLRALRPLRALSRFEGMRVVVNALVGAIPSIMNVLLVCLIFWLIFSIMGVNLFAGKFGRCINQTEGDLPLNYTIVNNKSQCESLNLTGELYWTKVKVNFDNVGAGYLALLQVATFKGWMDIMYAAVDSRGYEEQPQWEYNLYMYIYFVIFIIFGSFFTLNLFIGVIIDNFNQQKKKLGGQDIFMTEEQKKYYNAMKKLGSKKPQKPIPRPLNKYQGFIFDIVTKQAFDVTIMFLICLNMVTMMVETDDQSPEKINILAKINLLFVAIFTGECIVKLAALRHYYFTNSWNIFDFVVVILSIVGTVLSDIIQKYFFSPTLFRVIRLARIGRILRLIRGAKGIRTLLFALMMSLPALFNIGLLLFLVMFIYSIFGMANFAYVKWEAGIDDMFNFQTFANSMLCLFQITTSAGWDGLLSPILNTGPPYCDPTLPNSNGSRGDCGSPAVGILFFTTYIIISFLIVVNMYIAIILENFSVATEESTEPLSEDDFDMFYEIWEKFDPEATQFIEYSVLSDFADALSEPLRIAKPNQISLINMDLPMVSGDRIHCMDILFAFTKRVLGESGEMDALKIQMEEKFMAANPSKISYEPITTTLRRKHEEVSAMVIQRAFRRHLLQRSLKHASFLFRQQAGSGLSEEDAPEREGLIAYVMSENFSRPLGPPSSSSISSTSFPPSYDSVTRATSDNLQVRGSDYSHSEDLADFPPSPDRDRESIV
smiles,measurement,setting,value
"CC[C@H](C)[C@@H]1NC(=O)[C@@H]2CSSC[C@@H]3NC(=O)[C@H](C(C)C)NC(=O)[C@H](CC(C)C)NC(=O)[C@H](CC(N)=O)NC(=O)[C@@H]4CCCN4C(=O)[C@H](CCCNC(=N)N)NC(=O)[C@H](CSSC[C@H](NC(=O)[C@@H](N)CC(=O)O)C(=O)N[C@@H](CC(C)C)C(=O)NCC(=O)N[C@@H](Cc4ccccc4)C(=O)N[C@@H](CCSC)C(=O)N[C@@H](CCCNC(=N)N)C(=O)N[C@@H](CCCCN)C(=O)N2)NC(=O)[C@H](CSSC[C@@H](C(=O)N[C@@H](CCCCN)C(=O)N[C@@H](Cc2ccc(O)cc2)C(=O)N[C@H](C(=O)N[C@@H](Cc2ccccc2)C(N)=O)C(C)C)NC(=O)[C@H](Cc2c[nH]c4ccccc24)NC(=O)[C@H](CCCCN)NC(=O)[C@H](Cc2cnc[nH]2)NC(=O)[C@H]([C@@H](C)O)NC(=O)[C@H](CCCNC(=N)N)NC(=O)[C@H](C)NC3=O)NC(=O)[C@H](CCCCN)NC(=O)[C@H](CC(=O)O)NC(=O)[C@H](CC(N)=O)NC(=O)[C@H](CC(=O)O)NC(=O)[C@@H]2CCCN2C1=O [compound 142] (H-DCLGFMRKCIPDNDKCCRPNLVCARTHKWCKYVF-NH2; disulfide 2-17, 9-23, 16-30)",IC50,hNav1.5; [1],8.2 µM
same,IC50,hNav1.3; Use,250 nM
"CC[C@H](C)[C@@H]1NC(=O)[C@@H]2CSSC[C@@H]3NC(=O)[C@H](C(C)C)NC(=O)[C@H](CC(C)C)NC(=O)[C@H](CC(N)=O)NC(=O)[C@@H]4CCCN4C(=O)[C@H](CCC(=O)O)NC(=O)[C@H](CSSC[C@H](NC(=O)[C@@H](N)CC(=O)O)C(=O)N[C@@H](CC(C)C)C(=O)NCC(=O)N[C@@H](Cc4ccccc4)C(=O)N[C@@H](CCSC)C(=O)N[C@@H](CCCNC(=N)N)C(=O)N[C@@H](CCCCN)C(=O)N2)NC(=O)[C@H](CSSC[C@@H](C(=O)N[C@@H](CCCCN)C(=O)N[C@@H](Cc2ccc(O)cc2)C(=O)N[C@H](C(=O)N[C@@H](Cc2ccccc2)C(N)=O)C(C)C)NC(=O)[C@H](Cc2c[nH]c4ccccc24)NC(=O)[C@H](CCCCN)NC(=O)[C@H](Cc2cnc[nH]2)NC(=O)[C@H]([C@@H](C)O)NC(=O)[C@H](CCCNC(=N)N)NC(=O)[C@H](CO)NC3=O)NC(=O)[C@H](CCCCN)NC(=O)[C@H](CC(=O)O)NC(=O)[C@H](CC(N)=O)NC(=O)[C@H](CC(=O)O)NC(=O)[C@@H]2CCCN2C1=O [compound 148] (H-DCLGFMRKCIPDNDKCCEPNLVCSRTHKWCKYVF-NH2; disulfide 2-17, 9-23, 16-30)",IC50,hNav1.5; [1],14.6 µM
same,IC50,hNav1.3; Use,210 nM
"CC[C@H](C)[C@@H]1NC(=O)[C@@H]2CSSC[C@@H]3NC(=O)[C@H](C(C)C)NC(=O)[C@H](CC(C)C)NC(=O)[C@H](CC(N)=O)NC(=O)[C@H](CCCNC(=N)N)NC(=O)[C@H](CCCNC(=N)N)NC(=O)[C@H](CSSC[C@H](NC(=O)[C@@H](N)CC(=O)O)C(=O)N[C@@H](CC(C)C)C(=O)NCC(=O)N[C@@H](Cc4ccccc4)C(=O)N[C@@H](CCSC)C(=O)N[C@@H](CCCNC(=N)N)C(=O)N[C@@H](CCCCN)C(=O)N2)NC(=O)[C@H](CSSC[C@@H](C(=O)N[C@@H](CCCCN)C(=O)N[C@@H](Cc2ccc(O)cc2)C(=O)N[C@H](C(=O)N[C@@H](Cc2ccccc2)C(N)=O)C(C)C)NC(=O)[C@H](Cc2c[nH]c4ccccc24)NC(=O)[C@H](CCCCN)NC(=O)[C@H](Cc2cnc[nH]2)NC(=O)[C@H]([C@@H](C)O)NC(=O)[C@H](CCCNC(=N)N)NC(=O)[C@H](CO)NC3=O)NC(=O)[C@H](CCCCN)NC(=O)[C@H](CC(=O)O)NC(=O)[C@H](CC(N)=O)NC(=O)[C@H](CC(=O)O)NC(=O)[C@@H]2CCCN2C1=O [compound 157] (H-DCLGFMRKCIPDNDKCCRRNLVCSRTHKWCKYVF-NH2; disulfide 2-17, 9-23, 16-30)",IC50,hNav1.5; [1],6.16 µM
same,IC50,hNav1.3; Use,60 nM
"CC[C@H](C)[C@@H]1NC(=O)[C@@H]2CSSC[C@@H]3NC(=O)[C@H](CCCNC(=N)N)NC(=O)[C@H](CC(C)C)NC(=O)[C@H](CC(N)=O)NC(=O)[C@@H]4CCCN4C(=O)[C@H](CCCNC(=N)N)NC(=O)[C@H](CSSC[C@H](NC(=O)[C@@H](N)CC(=O)O)C(=O)N[C@@H](CC(C)C)C(=O)NCC(=O)N[C@@H](Cc4ccccc4)C(=O)N[C@@H](CCSC)C(=O)N[C@@H](CCCNC(=N)N)C(=O)N[C@@H](CCCCN)C(=O)N2)NC(=O)[C@H](CSSC[C@@H](C(=O)N[C@@H](CCCCN)C(=O)N[C@@H](Cc2ccc(O)cc2)C(=O)N[C@H](C(=O)N[C@@H](Cc2ccccc2)C(N)=O)C(C)C)NC(=O)[C@H](Cc2c[nH]c4ccccc24)NC(=O)[C@H](CCCCN)NC(=O)[C@H](Cc2cnc[nH]2)NC(=O)[C@H]([C@@H](C)O)NC(=O)[C@H](CCCNC(=N)N)NC(=O)[C@H](CO)NC3=O)NC(=O)[C@H](CCCCN)NC(=O)[C@H](CC(=O)O)NC(=O)[C@H](CC(N)=O)NC(=O)[C@H](CC(=O)O)NC(=O)[C@@H]2CCCN2C1=O [compound 158] (H-DCLGFMRKCIPDNDKCCRPNLRCSRTHKWCKYVF-NH2; disulfide 2-17, 9-23, 16-30)",IC50,hNav1.5; IWQ Use Nav1.5 (μM),8.2 µM
same,IC50,hNav1.3; Use,30 nM
"CC[C@H](C)[C@@H]1NC(=O)[C@@H]2CSSC[C@@H]3NC(=O)[C@H](C(C)C)NC(=O)[C@H](CC(C)C)NC(=O)[C@H](CC(N)=O)NC(=O)[C@@H]4CCCN4C(=O)[C@H](CCCNC(=N)N)NC(=O)[C@H](CSSC[C@H](NC(=O)[C@@H](N)CC(=O)O)C(=O)N[C@@H](CC(C)C)C(=O)NCC(=O)N[C@@H](Cc4ccccc4)C(=O)N[C@@H](CCSC)C(=O)N[C@@H](CCCNC(=N)N)C(=O)N[C@@H](CCCCN)C(=O)N2)NC(=O)[C@H](CSSC[C@@H](C(=O)N[C@@H](CCCCN)C(=O)N[C@@H](CCCNC(=N)N)C(=O)N[C@H](C(=O)N[C@@H](Cc2ccccc2)C(N)=O)C(C)C)NC(=O)[C@H](Cc2c[nH]c4ccccc24)NC(=O)[C@H](CCCCN)NC(=O)[C@H](Cc2cnc[nH]2)NC(=O)[C@H]([C@@H](C)O)NC(=O)[C@H](CCCNC(=N)N)NC(=O)[C@H](CO)NC3=O)NC(=O)[C@H](CCCCN)NC(=O)[C@H](CC(=O)O)NC(=O)[C@H](CC(N)=O)NC(=O)[C@H](CC(=O)O)NC(=O)[C@@H]2CCCN2C1=O [compound 159] (H-DCLGFMRKCIPDNDKCCRPNLVCSRTHKWCKRVF-NH2; disulfide 2-17, 9-23, 16-30)",IC50,hNav1.5; IWQ Use Nav1.5 (μM),8.65 µM
same,IC50,"hNav1.3; Table 25, use, […]",870 nM
"CC[C@H](C)[C@@H]1NC(=O)[C@@H]2CSSC[C@@H]3NC(=O)[C@H](C(C)C)NC(=O)[C@H](CC(C)C)NC(=O)[C@H](CC(N)=O)NC(=O)[C@@H]4CCCN4C(=O)[C@H](CCCNC(=N)N)NC(=O)[C@H](CSSC[C@H](NC(=O)[C@@H](N)CC(=O)O)C(=O)N[C@@H](CC(C)C)C(=O)NCC(=O)N[C@@H](Cc4ccccc4)C(=O)N[C@@H](CCSC)C(=O)N[C@@H](CCCNC(=N)N)C(=O)N[C@@H](CCCCN)C(=O)N2)NC(=O)[C@H](CSSC[C@@H](C(=O)N[C@@H](CCCCN)C(=O)N[C@@H](Cc2cccc4ccccc24)C(=O)N[C@H](C(=O)N[C@@H](Cc2ccccc2)C(N)=O)C(C)C)NC(=O)[C@H](Cc2c[nH]c4ccccc24)NC(=O)[C@H](CCCCN)NC(=O)[C@H](Cc2cnc[nH]2)NC(=O)[C@H]([C@@H](C)O)NC(=O)[C@H](CCCNC(=N)N)NC(=O)[C@H](CO)NC3=O)NC(=O)[C@H](CCCCN)NC(=O)[C@H](CC(=O)O)NC(=O)[C@H](CC(N)=O)NC(=O)[C@H](CC(=O)O)NC(=O)[C@@H]2CCCN2C1=O [compound 167] (H-DCLGFMRKCIPDNDKCCRPNLVCSRTHKWCK[1Nal]VF-NH2; disulfide 2-17, 9-23, 16-30)",IC50,hNav1.5; IWQ Use Nav1.5 (μM),3.96 µM
same,IC50,"hNav1.3; Table 25, use, […]",1 nM
"CSCC[C@@H]1NC(=O)[C@H](Cc2ccccc2)NC(=O)CNC(=O)[C@H](CC(C)C)NC(=O)[C@@H](NC(=O)[C@@H](N)CC(=O)O)CSSC[C@@H]2NC(=O)[C@@H]3CSSC[C@@H](C(=O)N[C@@H](CCCCN)C(=O)N[C@@H](Cc4ccc(O)cc4)C(=O)N[C@H](C(=O)N[C@@H](Cc4ccccc4)C(N)=O)C(C)C)NC(=O)[C@H](Cc4c[nH]c5ccccc45)NC(=O)[C@H](CCCCN)NC(=O)[C@H](Cc4cnc[nH]4)NC(=O)[C@H]([C@@H](C)O)NC(=O)[C@H](CCCNC(=N)N)NC(=O)[C@H](CO)NC(=O)[C@H](CSSC[C@H](NC(=O)[C@H](CCCCN)NC(=O)[C@H](CCCNC(=N)N)NC1=O)C(=O)N[C@@H](Cc1ccc(O)cc1)C(=O)N1CCC[C@H]1C(=O)N[C@@H](CC(=O)O)C(=O)N[C@@H](CC(N)=O)C(=O)N[C@@H](CC(=O)O)C(=O)N[C@@H](CCCCN)C(=O)N3)NC(=O)[C@H](C(C)C)NC(=O)[C@H](CC(C)C)NC(=O)[C@H](CC(N)=O)NC(=O)[C@@H]1CCCN1C(=O)[C@H](CCCNC(=N)N)NC2=O [compound 299] (H-DCLGFMRKCYPDNDKCCRPNLVCSRTHKWCKYVF-NH2; disulfide 2-17, 9-23, 16-30)",IC50,hNav1.5; [1],5.41 µM
same,IC50,hNav1.3; Use,70 nM
"CSCC[C@@H]1NC(=O)[C@H](Cc2ccccc2)NC(=O)CNC(=O)[C@H](CC(C)C)NC(=O)[C@@H](NC(=O)[C@@H](N)CC(=O)O)CSSC[C@@H]2NC(=O)[C@@H]3CSSC[C@@H](C(=O)N[C@@H](CCCCN)C(=O)N[C@@H](Cc4ccc(O)cc4)C(=O)N[C@H](C(=O)N[C@@H](Cc4ccccc4)C(N)=O)C(C)C)NC(=O)[C@H](Cc4c[nH]c5ccccc45)NC(=O)[C@H](CCCCN)NC(=O)[C@H](Cc4cnc[nH]4)NC(=O)[C@H]([C@@H](C)O)NC(=O)[C@H](CCCNC(=N)N)NC(=O)[C@H](CO)NC(=O)[C@H](CSSC[C@H](NC(=O)[C@H](CCCCN)NC(=O)[C@H](CCCNC(=N)N)NC1=O)C(=O)N[C@@H](C(C)C)C(=O)N1CCC[C@H]1C(=O)N[C@@H](CC(=O)O)C(=O)N[C@@H](CC(N)=O)C(=O)N[C@@H](CC(=O)O)C(=O)N[C@@H](CCCCN)C(=O)N3)NC(=O)[C@H](C(C)C)NC(=O)[C@H](CC(C)C)NC(=O)[C@H](CC(N)=O)NC(=O)[C@@H]1CCCN1C(=O)[C@H](CCCNC(=N)N)NC2=O [compound 301] (H-DCLGFMRKCVPDNDKCCRPNLVCSRTHKWCKYVF-NH2; disulfide 2-17, 9-23, 16-30)",IC50,hNav1.5; [1],7.88 µM
same,IC50,hNav1.3; Use,90 nM
